The source of these data is US20090030086A1, “ANTIMICROBIAL AGENTS” (priority 2005, published 2009).

SMILES strings stand for the structures. Converted amounts (≈) assume the structure as drawn. Read-outs that look alike come from different tables or passages of the source.

In assay [1] the test system is S. aureus ATCC 29213. The assay is described as follows: MIC assay. In kind it is cell-based, Staphylococcus aureus. Conditions: S. aureus ATCC 29213, Mueller-Hinton broth pH 7.2, aerobic, 37° C., 24 hours. In a few lines: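 Broth microdilution in Mueller-Hinton broth at pH 7.2, incubated aerobically at 37 °C for 24 h and run in duplicate with medium-only and solvent/inoculum controls. The MIC was the lowest concentration whose well stayed visibly clear.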

In assay [2] the test system is S. aureus ATCC 29213. The assay is described as follows: MBC assay. Type of assay: cell-based, Staphylococcus aureus. In a few lines: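 Follows an MIC assay; samples sub-cultured onto non-selective agar and inspected visually for growth to give the minimum lethal concentration. Culture on Mueller-Hinton medium, pH 7.2, aerobic, 37° C, 24 hours.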
In assay [3] the test system is S. aureus ATCC 29213. The assay is described as follows: Disc diffusion assay (DDA). In kind it is cell-based, Staphylococcus aureus. Conditions: S. aureus ATCC 29213, unsupplemented agar, 200 μg per disc (thymoquinone 50 μg, 2,6-dimethoxy-p-benzoquinone 100 μg); for zone of inhibition at 200 µg/disc: Staphylococcus aureus, ATCC29213, read-out: DDA (diameter of zone of inhibition). In a few lines: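 Paper discs loaded with test compound (usually 200 μg/disc), solvent evaporated ≥30 min, placed on inoculated Mueller-Hinton agar pH 7.2. Incubated aerobically at 37 °C for 24 h; inhibition zone diameter measured and area calculated as π(D/2)^2.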
In general terms: A growth-free zone around the sample is the usual read-out of agar diffusion tests.

In assay [4] the test system is S. aureus ATCC 29213. The assay is described as follows: Supplemented disc diffusion assay. Type of assay: cell-based, Staphylococcus aureus. The settings on record: S. aureus ATCC 29213, 200 μg per disc (thymoquinone 50 μg, 2,6-dimethoxy-p-benzoquinone 100 μg); for zone of inhibition at 200 µg/disc: Staphylococcus aureus, ATCC29213, 24 h. Put shortly: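 Paper discs loaded with compound (200 μg per disc for most assays) placed on inoculated Mueller-Hinton agar, pH 7.2, supplemented with 5% v/v defibrinated horse blood, 1% v/v Tween 80 and 100 mM NaCl. Aerobic incubation at 37° C for 24 h; inhibition zone diameter measured.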

The test system of assay [5] is P. acnes NCTC 737. Kind of assay: MIC assay. In kind it is cell-based, Propionibacterium acnes. The settings on record: P. acnes NCTC 737, Wilkins-Chalgren broth pH 6.0, anaerobic, 37° C., 72 hours. Put shortly: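 Broth microdilution in Wilkins-Chalgren Anaerobe broth pH 6.0, inoculated with freshly grown P. acnes NCTC 737 and incubated anaerobically at 37° C for 72 hours. MIC is the lowest compound concentration leaving the well visually clear, read on a light box. Run in duplicate with medium-only and solvent-plus-inoculum controls.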

Assay [6] relates to P. acnes NCTC 737. The assay is described as follows: MBC assay. In kind it is cell-based, Propionibacterium acnes. The settings on record: P. acnes NCTC 737. In a few lines: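 Plates were then checked visually for growth. The MBC is the lowest lethal concentration; cultures were grown on Wilkins-Chalgren Anaerobe Medium at pH 6.0.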
Assay [7] concerns P. acnes NCTC 737. Kind of assay: Disc diffusion assay (DDA). In kind it is cell-based, Propionibacterium acnes. The settings on record: P. acnes NCTC 737, unsupplemented agar, 200 μg per disc (2,6-dimethoxy-p-benzoquinone 100 μg); for zone of inhibition at 200 µg/disc: Cutibacterium acnes, NCTC737, read-out: DDA (diameter of zone of inhibition).
The test system of assay [8] is P. acnes NCTC 737. The assay is described as follows: Supplemented disc diffusion assay. In kind it is cell-based, Propionibacterium acnes. The settings on record: P. acnes NCTC 737, 200 μg per disc (2,6-dimethoxy-p-benzoquinone 100 μg); for zone of inhibition at 200 µg/disc: Cutibacterium acnes, NCTC737, 72 h. Put shortly:
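Propionibacterium discs loaded with 200 μg compound on Wilkins-Chalgren Anaerobe agar, pH 6.0, supplemented with Tween 80 (1% v/v) and NaCl (100 mM); anaerobic incubation at 37 °C for 72 h. Inhibition zone diameter measured by automated zone sizer.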

[9] abbreviates: Staphylococcus aureus, ATCC29213, read-out: MIC.
Setting [10] is: Staphylococcus aureus, ATCC29213, read-out: MBC.
The mark [11] stands for this setting: Tween 80 at 1% v/v, read-out: DDA + lipid.
The mark [12] stands for this setting: defibrinated horse blood 5% v/v, read-out: DDA + blood.
Setting [13] is: sodium chloride 100 mM, read-out: DDA + salt.
[14] abbreviates: Cutibacterium acnes, NCTC737, read-out: MIC.
Setting [15] is: Cutibacterium acnes, NCTC737, read-out: MBC.
Setting [16] is: defibrinated horse blood 5% v/v.

Turning to `CC(C)(C)c1cc(C(C)(C)C)c(O)cc1O` [4,6-di-t-butylresorcinol], the MIC in the assay with S. aureus ATCC 29213 [1] (setting [9]) and in the assay with P. acnes NCTC 737 [5] (setting [14]) was 7.8 µg/mL (≈ 35.1 µM) each time. In addition, the MIC/MBC ratio in the assay with S. aureus ATCC 29213 [2] and in the assay with P. acnes NCTC 737 [6] was 0.5 each time. In addition, the MBC in the assay with S. aureus ATCC 29213 [2] (setting [10]) and in the assay with P. acnes NCTC 737 [6] (setting [15]) was 15.6 µg/mL (≈ 70.2 µM) throughout. Besides, the zone of inhibition at 200 µg/disc in the assay on S. aureus ATCC 29213 [3] was 8.09 mm; in the assay with S. aureus ATCC 29213 [4] (setting [11]) it was 0 mm; in the assay with S. aureus ATCC 29213 [4] (setting [12]) it was 0 mm; in the assay with S. aureus ATCC 29213 [4] (setting [13]), 8.4 mm; with P. acnes NCTC 737 [7], 36.6 mm; in the assay with P. acnes NCTC 737 [8] (setting [11]), 0 mm. In the assay with P. acnes NCTC 737 [8] (setting [13]), the zone of inhibition at 200 µg/disc stood at 37.8 mm.
Regarding `Oc1cc(Cl)c(O)cc1Cl` [2,5-dichloro-p-hydroquinone], the results for the MIC in the assay with S. aureus ATCC 29213 [1] and in the assay with P. acnes NCTC 737 [5] were 15.6 µg/mL (≈ 87.1 µM) and 62.5 µg/mL (≈ 349 µM), respectively. The MBC with S. aureus ATCC 29213 [2] was 15.6 µg/mL (≈ 87.1 µM); in the assay on P. acnes NCTC 737 [6], 62.5 µg/mL (≈ 349 µM). Besides, the MIC/MBC ratio in the assay on S. aureus ATCC 29213 [2] and in the assay with P. acnes NCTC 737 [6] was 1 each time. The “DDA (diameter of zone of inhibition)” value with S. aureus ATCC 29213 [3] is listed as 19.90 mm; in the assay on P. acnes NCTC 737 [7], 13.46 mm. Further, the “DDA + lipid” value in the assay on S. aureus ATCC 29213 [4] (Tween 80 at 1% v/v) is 15.63 mm; in the assay with P. acnes NCTC 737 [8] (Tween 80 at 1% v/v), 0.0 mm. In the assay on S. aureus ATCC 29213 [4] (setting [16]), the “DDA + blood” value is 13.44 mm. In addition, the “DDA + salt” value in the assay with S. aureus ATCC 29213 [4] (sodium chloride 100 mM) came to 18.75 mm; with P. acnes NCTC 737 [8] (sodium chloride 100 mM) it was 18.64 mm.
For `CCCCCCOc1cc(C)c(O)c(C)c1C` [1-o-hexyl-2,3,5-trimethyl-p-hydroquinone], the MIC against S. aureus ATCC 29213 [1] stood at 3.9 µg/mL (≈ 16.5 µM); with P. acnes NCTC 737 [5] it was 15.6 µg/mL (≈ 66 µM). Further, the MBC with S. aureus ATCC 29213 [2] is 7.8 µg/mL (≈ 33 µM); in the assay with P. acnes NCTC 737 [6], 31.25 µg/mL (≈ 132 µM). In addition, the MIC/MBC ratio in the assay on S. aureus ATCC 29213 [2] and with P. acnes NCTC 737 [6] was 0.5 throughout. Further, the results for the “DDA (diameter of zone of inhibition)” value in the assay on S. aureus ATCC 29213 [3] and in the assay with P. acnes NCTC 737 [7] were 8.61 mm and 16.64 mm, respectively. For the same compound, the “DDA + lipid” value in the assay on S. aureus ATCC 29213 [4] (Tween 80 at 1% v/v) and with P. acnes NCTC 737 [8] (Tween 80 at 1% v/v) was 0.0 mm each time. In addition, in the assay on S. aureus ATCC 29213 [4] (setting [16]), the “DDA + blood” value was 0.0 mm. In addition, the results for the “DDA + salt” value with S. aureus ATCC 29213 [4] (sodium chloride 100 mM) and with P. acnes NCTC 737 [8] (sodium chloride 100 mM) were 8.72 mm and 16.43 mm, respectively.
As to `Cc1cc(O)c(C(C)C)cc1O` [thymohydroquinone], the MIC came to 7.8 µg/mL (≈ 46.9 µM) in the assay with S. aureus ATCC 29213 [1] (setting [9]) and 31.2 µg/mL (≈ 188 µM) in the assay with P. acnes NCTC 737 [5] (setting [14]). The MIC/MBC ratio with S. aureus ATCC 29213 [2] came to 0.5; in the assay with P. acnes NCTC 737 [6], 1. The MBC with S. aureus ATCC 29213 [2] (setting [10]) was 15.6 µg/mL (≈ 93.9 µM); with P. acnes NCTC 737 [6] (setting [15]), 31.2 µg/mL (≈ 188 µM). For the same compound, the zone of inhibition at 200 µg/disc in the assay on S. aureus ATCC 29213 [3] was 57.6 mm; in the assay on S. aureus ATCC 29213 [4] (setting [11]) it was 41.7 mm; with S. aureus ATCC 29213 [4] (setting [12]), 10.3 mm; with S. aureus ATCC 29213 [4] (setting [13]), 57.6 mm; with P. acnes NCTC 737 [7], 9.82 mm; in the assay on P. acnes NCTC 737 [8] (setting [11]) it was 0 mm. Moreover, the zone of inhibition at 200 µg/disc in the assay on P. acnes NCTC 737 [8] (setting [13]) came to 9.61 mm.

Usually MIC stands for the least concentration at which growth counts as inhibited. What is called MBC is the lowest tested concentration that kills the bacteria rather than only halting them.
